The source of these data is PubChem BioAssay (NCI).

What all share (assay): NCI anticancer screen, dose series, 48 h
The test system of assay [1] is MDA-MB-435.
In assay [2] the test system is M14 melanoma.
The subject of assay [3] is EKVX NSCLC.
The test system of assay [4] is 786-0 renal.
Assay [5] relates to HT29 colon.
Assay [6] relates to HOP-92 NSCLC.
In assay [7] the test system is CAKI-1 renal.
Assay [8] relates to SK-MEL-2 melanoma.
For assay [9], the system named is UO-31 renal.
The test system of assay [10] is MOLT-4 leukemia.
Assay [11] concerns NCI-H460 lung.

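Test compounds were applied to cells in 96-well plates for 48 hours at 5 doses. TGI: total growth inhibition.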

In the case of `COC(=O)Cc1c([C@H]2[C@H](CC(=O)OC)c3ccccc3N2C(C)=O)[nH]c2ccccc12`, the TGI in assay [1], in assay [2], in [3], in [4], in [5] and in assay [6] was > 100 µM throughout. Also, the TGI in [7], in assay [8], in assay [9], in assay [10] and in assay [11] was > 100 µM throughout.

In the case of `Nc1ccc(S(=O)(=O)Nc2nc3ccccc3nc2N2CCCCC2)cc1`, the TGI in assay [1], in assay [2], in assay [3], in assay [4], in assay [5] and in [6] was > 100 µM in each case. Moreover, the TGI in assay [7] is > 100 µM; in assay [8] it was > 100 µM; in assay [9], 55.1 µM; in assay [10], > 100 µM; in assay [11], > 100 µM.

For the compound `c1ccc2c3c(c(N4CCOCC4)nc2c1)CCCC3`, the TGI in [1] was > 100 µM; in [2] it was > 100 µM; in assay [3], 63.8 µM; in [4] it was 92.9 µM; in assay [5], > 100 µM; in [6] it was > 100 µM. Moreover, the TGI in assay [7], in [8], in assay [9], in assay [10] and in [11] was > 100 µM each time.

`COc1c(C)c2nc3ccccc3[nH]c2c2c(=O)ccnc12`: the TGI in [1], in assay [2], in [3], in assay [4], in [5] and in [6] was > 100 µM in each case. Further, the TGI in assay [7], in assay [8], in assay [9], in [10] and in assay [11] was > 100 µM throughout.

Take `COc1cc(CN2CCCCC2)cc2cc(C(=O)O)c(=O)oc12`: the TGI in assay [1], in assay [2], in assay [3], in [4], in assay [5] and in [6] was > 100 µM throughout. For the same compound, the TGI in assay [7], in assay [8], in assay [9], in assay [10] and in assay [11] was > 100 µM each time.

Consider `FC(F)(F)c1ccc2nc3n(c2c1)C(c1c(Cl)cccc1Cl)SC3` (configuration not stated), for which the TGI was determined as 30.5 µM in [1]; 30.7 µM in assay [2]; 28.6 µM in assay [3]; 28.4 µM in [4]; 30.4 µM in assay [5]; 17.7 µM in [6]. For the same compound, the TGI in assay [7] was 28 µM; in [8] it was 42.3 µM; in assay [9], 26.8 µM; in assay [10], > 100 µM; in assay [11], 35.6 µM.

For `Clc1ccc(OCc2nnc(CCCCCCCCc3nnc(COc4ccc(Cl)cc4)n3Nc3ccccc3)n2Nc2ccccc2)cc1`, the TGI in assay [1] is > 63.4 µM; in assay [2], > 38.3 µM; in assay [3] it was > 87.9 µM; in assay [4], 58 µM; in assay [5] it was 34.3 µM; in [6], 77 µM. Also, the TGI in [7] was 27.2 µM; in assay [8], 63.5 µM; in assay [9] it was > 95.1 µM; in assay [10], > 100 µM; in [11], > 100 µM.

`NC(=O)C(=CNC(=S)c1ccncc1)C(N)=O`: the TGI in assay [1], in assay [2], in assay [3], in [4], in [5] and in assay [6] was > 100 µM throughout. Also, the TGI in assay [7], in assay [8], in [9], in assay [10] and in assay [11] was > 100 µM throughout.

Regarding `Cc1cn(C(C)OCCN2C(=O)c3ccccc3C2=O)c(=O)[nH]c1=O` (configuration not stated), the TGI in [1], in assay [2], in [3], in assay [4], in assay [5] and in assay [6] was > 100 µM in each case. Further, the TGI in assay [7], in assay [8], in assay [9], in [10] and in [11] was > 100 µM throughout.

Regarding `CCOC(=O)/C(C#N)=N\Nc1ccc(-n2c(C)nc3ccccc3c2=O)cc1`, the TGI in assay [1], in assay [2], in assay [3], in [4], in assay [5] and in [6] was > 100 µM throughout. The TGI in assay [7], in [8], in assay [9], in assay [10] and in assay [11] was > 100 µM each time.

For `NC(=O)c1cc2ccccc2o/c1=N/O`, the TGI in assay [1], in assay [2], in assay [3], in assay [4], in [5] and in [6] was > 100 µM each time. The TGI in assay [7] is 70.3 µM; in [8] it was > 100 µM; in [9] it was > 100 µM; in [10], > 100 µM; in [11] it was > 100 µM.

Regarding `CCOc1cc(-c2nc3ccccn3c2/N=C/c2cc(Br)ccc2O)ccc1O`, the TGI in assay [1] is > 100 µM; in [2], > 100 µM; in [3], 76.6 µM; in assay [4], 60.4 µM; in assay [5], > 100 µM; in assay [6], 64.5 µM. For the same compound, the TGI in assay [7] is > 100 µM; in [8] it was > 100 µM; in [9], 84.6 µM; in [10] it was > 100 µM; in [11] it was > 100 µM.
